Measurements published in patent US9399645B2, “Inhibitors of HIV replication” (Boehringer Ingelheim International GmbH, priority 2011, dated 2016).

Key:
[1] = system: HIV-1; experiment: C8166 HIV-1 Luciferase Assay (EC50); assay type: cell-based; conditions: Human immunodeficiency virus 1, C8166, 72 h
Protocol: C8166 HIV-1 Luciferase Assay (Ec50)
The assay used to measure inhibition of HIV replication is as described in WO 2004/050643, pages 73-75, incorporated herein by reference, with the following modifications:
Serial dilutions of HIV-1 inhibitors are prepared in complete media from DMSO stock solutions. Eleven serial dilutions of desired concentration are prepared in a 1 mL deep well titer plate (96 wells). The 12th well contains complete media with no inhibitor and serves as the positive control. All samples contain the same concentration of DMSO (<0.1% DMSO). Inhibitor is added, to triplicate wells, of a 96 well tissue culture treated clear view black microtiter plate (Corning Costar catalogue #3904). The total volume per well is 200 μL of media containing the cells and inhibitor. The last row is reserved for uninfected C8166 LTRIuc cells to serve as the background blank control and the first row is media alone.
Count C8166 LTRIuc cells and place in a minimal volume of complete RPMI 1640 in a tissue culture flask (ex. 30×10^6 cells in 10 mL media/25 cm^2 flask). Infect cells with HIV-1 at a moi of 0.005. Incubate cells for 1.5 h at 37° C. on a rotating rack in a 5% CO2 incubator. Resuspend cells in complete RPMI to give a final concentration of 25,000-cells/well. Add cells to wells of 96 well microtiter plate containing inhibitors. Add 25,000 uninfected C8166-LTRIuc cells/well in 200 μL complete RPMI to last row for background control. Incubate cells at 37° C. in 5% CO2 incubator for 3 days.
50 μL Steady Glo (luciferase substrate T112=5 hours Promega catalogue # E2520) is added to each well of the 96 well plate. The relative light units (RLU) of luciferase are determined using a luminescence plate reader. The calculated % inhibition values are used to determine EC50, slope factor (n) and maximum inhibition (Imax).

[2] = Caco-2 Permeability Assay; assay type: in vitro ADME; conditions: human, apparent permeability A to B, compound at 10 μM, apical buffer pH 6.0, basolateral buffer pH 7.4, read-out: Papp (cm/sec, *10^−6)
Description: Caco-2 Permeability Assay Caco-2 cells are purchased from Cell Culture Services as frozen instant cells at a concentration of 1*10^7 cells/vial. DMEM+glutamax-I culture media is purchased from Gibco (10569). Fetal bovine serum (FBS) is purchased from HyClone (SH30396.03). Pennicilin/Streptomycin antibiotics are purchased from Gibco (15140). MEM non-essential amino acids are purchased from Gibco (11140). Hank's balanced salt solution (HBSS) is purchased from Gibco (14025). Bovine serum albumin (BSA) is purchased from Sigma-Aldrich (A7906). MES low moisture is purchased from Sigma-Aldrich (M3671). HEPES is purchased from Sigma-Aldrich (H3375). Dimethyl Sulfoxide (DMSO) is purchased from EMD (MX1457-6). Complete DMEM media is prepared by adding 1 L of FBS, 100 mL of pen/strep and 110 mL of MEM non essential amino acids to 10 L of DMEM+glutamax-I. […] Caco-2 cells are seeded on HTS transwell 24-well plates purchased from Corning (3397). These polycarbonate membrane plates have a diameter of […] and pore size of 0.4 μm. The Caco-2 cells vial is thawed in a 37° C. water bath until only a small ice pellet is left. The vial is then transferred to the laminar flow hood and its exterior is extensively washed with 70% ethanol. The total content of the vial (2 mL) is transferred into a 50 mL tube containing 38 mL of complete DMEM. […] The seeding is done by the Hamilton star robotic station which is controlled with the Venus program. Each well will receive 600 μL of complete DMEM on its basolateral side and 200 μL of cells on its apical side. Each well receives 50 000 cells. The 24-well plates are then returned to an automated Liconic STX110 incubator set at 37° C., 5% CO2 and 100% humidity. The culture media for the cells is changed every two days except on weekends. These cells are maintained for a period of two weeks prior to the running of the permeability assay. Permeability assays are usually performed between day 15 and 18 after the initial seeding. […] Controls for the assay are mannitol for tight junction determination and Digoxin for efflux transporter (p-glycoprotein) expression. On the day of the assay, each compound is diluted to 10 μM in the buffer (apical for A to B). 6 μl of the 5 mM DMSO stock is added to 3 mL of the buffer in a 24-well 10 mL deep plate covered with a lid. The plate containing all the diluted compounds is spun for 10 min at 3000 rpm in a Rotanta 46 RSC centrifuge from Hettich to remove unsoluble compound. This dilution is used to add at the start of the incubation. Each compound is tested in duplicate. On the day of the assay, the culture media of the 24-well plate is removed and replaced with warm HBSS. The HBSS is then also removed and the Apical and Basolatral buffer are added to their respective side of the transwells. These steps are performed by the Hamilton Star robotic station. The plate is then placed in a 37° C. incubator and is left to equilibrate for 30 min. After 30 min of incubation a background sample (25 μL from each well) is taken from the receiver side (Basolateral for A to B), and replenished with warm buffer. These samples and all others afterwards are kept in a 96-well 1 mL plate. To start the assay, the donor compartment (apical for A to B) is emptied and replaced with new buffer containing the compound at 10 μM. Once the compounds are added, the plate is returned to the 37° C. incubator and the timer is started. In order to determine how much compound is actually added to each well, a 50 μL sample is taken from each compound dilution, this sample is refered to as the load. These steps and the following are performed by the Tecan Freedom EVO robotic station controlled via the Gemini software. For A-to-B Assay: Samples (190 μL) are taken from each basolateral (receiver) chamber at time points 0, 60, 120 and 180 min or at time points 0, 30, 60 and 90 min. From the 190 μL taken, 50 μL is transferred to the receiving plate and 140 μL is discarded.

Row | SMILES | EC50 [1] [nM] | Papp A→B at 10 μM [2] [×10⁻⁶ cm/s]
1 | CC[C@@H]1C[C@H](n2c(=O)nc(-c3ccc(NC)nc3)c3oc4ccc(-c5cnn(C)c5)cc4c32)CO1 (racemic) [Compound 1037] | 10.2 | 8.2
2 | CC[C@H]1C[C@@H](n2c(=O)nc(-c3cnn(C)c3)c3oc4ccc(-c5cnn(C)c5)nc4c32)CCO1 [Compound 1001] | 4.9 | 20.4
3 | CC[C@H]1C[C@@H](n2c(=O)nc(-c3cnn(C)c3)c3oc4ccc(-c5cn(C)nc5C)nc4c32)CCO1 [Compound 1002] | 8.6 | 14.5
4 | CC[C@H]1C[C@@H](n2c(=O)nc(-c3cnn(C)c3)c3oc4ccc(-c5ccn(C)n5)nc4c32)CCO1 [Compound 1003] | 6.4 | 22.2
5 | CC[C@H]1C[C@@H](n2c(=O)nc(-c3cnn(C)c3)c3oc4ccc(-c5cncnc5)nc4c32)CCO1 [Compound 1004] | 21 | 14.1
6 | CC[C@H]1C[C@@H](n2c(=O)nc(-c3cnn(C)c3)c3oc4ccc(-c5cccnc5)nc4c32)CCO1 [Compound 1006] | 7.4 | 18.1
7 | CC[C@H]1C[C@@H](n2c(=O)nc(-c3cnn(C)c3)c3oc4ccc(-c5cnco5)nc4c32)CCO1 [Compound 1007] | 8.4 | 19.7
8 | C[C@@H]1C[C@H](n2c(=O)nc(-c3cnn(C)c3)c3oc4ccc(-c5cnn(C)c5)nc4c32)C[C@H](C)O1 [Compound 1008] | 73.9 | 18.1
9 | CC[C@H]1C[C@@H](n2c(=O)nc(-c3cnn(C)c3)c3oc4ccc(-c5cnn(C)c5)nc4c32)C[C@@H](C)O1 [Compound 1009] | 4.6 | 27.6
10 | CC[C@H]1C[C@@H](n2c(=O)nc(-c3cnn(C)c3)c3oc4ccc(-n5cncn5)nc4c32)CCO1 [Compound 1013] | 98 | 16.8
11 | CC[C@H]1C[C@@H](n2c(=O)nc(-c3cnn(C)c3)c3oc4ccc(-c5cn(C)cn5)nc4c32)CCO1 [Compound 1014] | 5.2 | 20.7
12 | CC[C@H]1C[C@@H](n2c(=O)nc(-c3cnn(C)c3)c3oc4cc(C#N)c(-c5cnn(C)c5)nc4c32)CCO1 [Compound 1015] | 3 | 20.7
13 | C[C@@H]1C[C@H](n2c(=O)nc(-c3cnn(C)c3)c3oc4cc(C#N)c(-c5cnn(C)c5)nc4c32)C[C@H](C)O1 [Compound 1016] | 89 | 15.9
14 | CC[C@H]1C[C@@H](n2c(=O)nc(-c3cnn(C)c3)c3oc4cc(C#N)c(-c5cnn(C)c5)nc4c32)C[C@@H](C)O1 [Compound 1017] | 22 | 23.6
15 | CCC[C@H]1C[C@@H](n2c(=O)nc(-c3cnn(C)c3)c3oc4cc(C#N)c(-c5cnn(C)c5)nc4c32)CCO1 [Compound 1018] | 22 | 19.8
16 | CC[C@H]1C[C@@H](n2c(=O)nc(-c3cccnc3)c3oc4cc(C#N)c(-c5cnn(C)c5)nc4c32)CCO1 [Compound 1019] | 52 | 22.5
17 | CC[C@H]1C[C@@H](n2c(=O)nc(-c3cnn(C)c3)c3oc4cc(Cl)c(-c5cnn(C)c5)nc4c32)CCO1 [Compound 1022] | 3.2 | 17.2

Row | SMILES | EC50 [1] [nM] | Papp A→B at 10 μM [2] [×10⁻⁶ cm/s]
18 | CNc1ccc(-c2nc(=O)n(CCC3CCCO3)c3c2oc2ccc(-c4cnn(C(C)C)c4)cc23)cn1 (stereo not drawn) [Compound 1025] | 350 | 8.1
19 | Cn1cc(-c2ccc3oc4c(-c5ccc(N6CCOCC6)nc5)nc(=O)n(CCC5CCCO5)c4c3c2)cn1 (stereo not drawn) [Compound 1026] | 27.9 | 7.4
20 | CNc1ccc(-c2nc(=O)n(CCC3CCCO3)c3c2oc2ccc(-c4cnco4)cc23)cn1 (stereo not drawn) [Compound 1027] | 54 | 12.4
21 | CNc1ccc(-c2nc(=O)n(CCC3CCCO3)c3c2oc2ccc(-c4cncs4)cc23)cn1 (stereo not drawn) [Compound 1028] | 50 | 19.9
22 | CNc1ccc(-c2nc(=O)n(CCC3CCCO3)c3c2oc2c(F)cc(-c4cnco4)cc23)cn1 (stereo not drawn) [Compound 1029] | 19 | 16.1
23 | CNc1ccc(-c2nc(=O)n(CCC3CCCO3)c3c2oc2c(F)cc(-c4cnn(C)c4)cc23)cn1 (stereo not drawn) [Compound 1030] | 10.2 | 6.1
24 | Cn1cc(-c2cc(F)c3oc4c(-c5ccc(N6CCOCC6)nc5)nc(=O)n(CCC5CCCO5)c4c3c2)cn1 (stereo not drawn) [Compound 1031] | 14 | 6.4
25 | CNc1ccc(-c2nc(=O)n(CCC3CCCO3)c3c2oc2cc(F)c(-c4cnn(C)c4)cc23)cn1 (stereo not drawn) [Compound 1032] | 11.9 | 7.7
26 | Cn1cc(-c2cc3c(cc2F)oc2c(-c4ccc(N5CCC5)nc4)nc(=O)n(CCC4CCCO4)c23)cn1 (stereo not drawn) [Compound 1033] | 7.6 | 6.9
27 | CN(C)c1ccc(-c2nc(=O)n(CCC3CCCO3)c3c2oc2cc(F)c(-c4cnn(C)c4)cc23)cn1 (stereo not drawn) [Compound 1034] | 23 | 6.8
28 | CN(C)c1ccc(-c2nc(=O)n(CCC3CCCO3)c3c2oc2ccc(-c4cncs4)cc23)cn1 (stereo not drawn) [Compound 1035] | 9.4 | 11.5
29 | CNc1ccc(-c2nc(=O)n(CCC3CCCCO3)c3c2oc2ccc(-c4cnn(C)c4)cc23)cn1 (stereo not drawn) [Compound 1036] | 6.8 | 7.6
30 | C[C@@H]1C[C@H](n2c(=O)nc(-c3cnn(C)c3)c3oc4ccc(-c5cnn(C)c5)cc4c32)C[C@H](C)O1 [Compound 1039] | 36 | 16.8
31 | CC[C@H]1C[C@@H](n2c(=O)nc(-c3cnn(C)c3)c3oc4ccc(-c5cccnc5)cc4c32)CCO1 [Compound 1040] | 12.8 | 19.2
32 | CC[C@H]1C[C@@H](n2c(=O)nc(-c3cnn(C)c3)c3oc4ccc(-c5cnn(CC)c5)cc4c32)CCO1 [Compound 1041] | 6.6 | 26.9
33 | CC[C@H]1C[C@@H](n2c(=O)nc(-c3cnn(C)c3)c3oc4cc(C#N)c(-c5cnn(C)c5)cc4c32)CCO1 [Compound 1049] | 15.1 | 
34 | CC[C@H]1C[C@@H](n2c(=O)nc(-c3ccc(NC)nc3)c3oc4ncc(-c5cnn(C)c5)cc4c32)CCO1 [Compound 1069] | 7.8 | 
